Results reported in patent publication US11084800B2 (Achillion Pharmaceuticals, Inc., priority 2017, dated 2021).

Target: Human Factor D (Homo sapiens (Human), UniProt P00746)
Assay: Human Factor D Assay
Assay type: biochemical
Details: Table 6; Factor D 80 nM, substrate Z-L-Lys-SBz; read-out: IC50
Method: The assay of Example 10 was used to determine the IC50's of the compounds. Other standard factor D inhibition assays are also available.
Human Factor D (purified from human serum, Complement Technology, Inc.) at 80 nM final concentration is incubated with test compound at various concentrations for 5 min at room temperature in 50 mM Tris, 1M NaCl, pH 7.5. A synthetic substrate Z-L-Lys-SBz and DTNB (Ellman's reagent) are added to final concentrations of 100 μM each. Absorbance at 405 nm (A405) is recorded at 30 second intervals for 30 min using a microplate spectrophotometer. IC50 values are calculated by nonlinear regression of complement Factor D reaction rates as a function of test compound concentration.

Chain of Human Factor D (P00746 26-253): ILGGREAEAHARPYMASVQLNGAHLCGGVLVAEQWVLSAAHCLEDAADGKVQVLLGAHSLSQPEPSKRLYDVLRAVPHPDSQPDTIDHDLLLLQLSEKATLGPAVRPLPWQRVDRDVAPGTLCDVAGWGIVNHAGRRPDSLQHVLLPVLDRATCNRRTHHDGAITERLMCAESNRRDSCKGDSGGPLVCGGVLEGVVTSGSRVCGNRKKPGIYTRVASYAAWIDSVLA

Row | SMILES | IC50 [nM]
1 | CCc1cc(-c2cnc(C)nc2)cc2c(C(C)=O)nn(CC(=O)N3[C@H](C(=O)Nc4nc(Br)ccc4C)C[C@@]4(C)C[C@@H]34)c12 [Compound 47, (1R,3S,5R)-2-(2-(3-Acetyl-7-ethyl-5-(2-methylpyrimidin-5-yl)-1H-indazol-1-yl)acetyl)-N-(6-bromo-3-methylpyridin-2-yl)-5-methyl-2-azabicyclo[3.1.0]hexane-3-carboxamide] | < 1000
2 | COCc1ccc(Br)c(NC(=O)[C@@H]2CC3(CNC(=O)[C@@H](NC(=O)OC)C(C)C)CC3N2C(=O)Cn2nc(C(C)=O)c3cc(-c4cnc(C)nc4)ccc32)n1 (stereo partly drawn) [Compound 48, methyl ((2S)-1-((((3S)-2-(2-(3-acetyl-5-(2-methylpyrimidin-5-yl)-1H-indazol-1-yl)acetyl)-3-((3-bromo-6-(methoxymethyl)pyridin-2-yl)carbamoyl)-2-azabicyclo[3.1.0]hexan-5-yl)methyl)amino)-3-methyl-1-oxobutan-2-yl)carbamate] | > 10000
3 | CC(=O)c1nn(CC(=O)N2[C@H](C(=O)Nc3nc(Br)ccc3C)C[C@@]3(C)C[C@@H]23)c2c(C)cc(-c3cnc(C)[n+]([O-])c3)cc12 [Compound 50, 5-(3-Acetyl-1-(2-((1R,3S,5R)-3-(6-bromo-3-methylpyridin-2-ylcarbamoyl)-5-methyl-2-azabicyclo[3.1.0]hexan-2-yl)-2-oxoethyl)-7-methyl-1H-indazol-5-yl)-2-methylpyrimidine 1-oxide] | < 1000
4 | Cc1ncc(-c2ccc3c(c2)c(C(N)=O)nn3CC(=O)N2C[C@H]3C[C@H]3[C@H]2C(=O)Nc2nc(Br)ccc2C)cn1 [Compound 56, 1-(2-((1R,2S,5S)-2-((6-Bromo-3-methylpyridin-2-yl)carbamoyl)-3-azabicyclo[3.1.0]hexan-3-yl)-2-oxoethyl)-5-(2-methylpyrimidin-5-yl)-1H-indazole-3-carboxamide] | < 1000
5 | Cc1ncc(-c2cc(C)c3c(c2)c(C(N)=O)nn3CC(=O)N2[C@H](C(=O)Nc3nc(Br)ccc3C)C[C@@]3(C)C[C@@H]23)cn1 [Compound 57, 1-(2-((1R,3S,5R)-3-((6-Bromo-3-methylpyridin-2-yl)carbamoyl)-5-methyl-2-azabicyclo[3.1.0]hexan-2-yl)-2-oxoethyl)-7-methyl-5-(2-methylpyrimidin-5-yl)-1H-indazole-3-carboxamide] | < 1000
6 | Cc1ncc(-c2cc(C)c3c(c2)c(C(N)=O)nn3CC(=O)N2[C@H](C(=O)Nc3cccc(Br)n3)C[C@@]3(C)C[C@@H]23)cn1 [Compound 58, 1-(2-((1R,3S,5R)-3-((6-Bromopyridin-2-yl)carbamoyl)-5-methyl-2-azabicyclo[3.1.0]hexan-2-yl)-2-oxoethyl)-7-methyl-5-(2-methylpyrimidin-5-yl)-1H-indazole-3-carboxamide] | < 1000
7 | CC(=O)c1nn(CC(=O)N2C[C@H](F)C[C@H]2C(=O)Nc2nc(Br)ccc2CC(=O)O)c2ccc(-c3cnc(C)nc3)cc12 [Compound 62, 2-(2-((2S,4R)-1-(2-(3-Acetyl-5-(2-methylpyrimidin-5-yl)-1H-indazol-1-yl)acetyl)-4-fluoropyrrolidine-2-carboxamido)-6-bromopyridin-3-yl)acetic Acid] | < 1000
8 | CC(=O)c1nn(CC(=O)N2[C@H](C(=O)Nc3nc(Br)ccc3C)C[C@@]3(C)C[C@@H]23)c2ccc(-c3cnc(C)[n+]([O-])c3)cc12 [Compound 64, 5-(3-acetyl-1-(2-((1R,3S,5R)-3-((6-bromo-3-methylpyridin-2-yl)carbamoyl)-5-methyl-2-azabicyclo[3.1.0]hexan-2-yl)-2-oxoethyl)-1H-indazol-5-yl)-2-methylpyrimidine 1-oxide] | < 1000
9 | CC(=O)c1nn(CC(=O)N2[C@H](C(=O)Nc3nc(Br)ccc3C)C[C@@]3(CO)C[C@@H]23)c2ccc(-c3cnc(C)nc3)cc12 [Compound 65, (1R,3S,5S)-2-(2-(3-acetyl-5-(2-methylpyrimidin-5-yl)-1H-indazol-1-yl)acetyl)-N-(6-bromo-3-methylpyridin-2-yl)-5-(hydroxymethyl)-2-azabicyclo[3.1.0]hexane-3-carboxamide] | < 1000
10 | CC(=O)c1nn(CC(=O)N2C[C@@](F)(CF)C[C@H]2C(=O)Nc2nc(Br)ccc2C)c2c(C)cc(-c3cnc(C)nc3)cc12 [Compound 66, (2S,4R)-1-(2-(3-Acetyl-7-methyl-5-(2-methylpyrimidin-5-yl)-1H-indazol-1-yl)acetyl)-N-(6-bromo-3-methylpyridin-2-yl)-4-fluoro-4-(fluoromethyl)pyrrolidine-2-carboxamide] | < 1000
11 | CC(=O)c1nn(CC(=O)N2[C@H](C(=O)Nc3nc(Br)ccc3C)C[C@@]3(CN4CC5(CCC5)C4)C[C@@H]23)c2ccc(-c3cnc(C)nc3)cc12 [Compound 67, (1R,3S,5R)-5-(2-azaspiro[3.3]heptan-2-ylmethyl)-2-(2-(3-acetyl-5-(2-methylpyrimidin-5-yl)-1H-indazol-1-yl)acetyl)-N-(6-bromo-3-methylpyridin-2-yl)-2-azabicyclo[3.1.0]hexane-3-carboxamide] | < 1000
12 | CC(=O)c1nn(CC(=O)N2[C@H]3C[C@@]3(CN3CC4(CCC4)C3)C[C@H]2C(=O)Nc2nc(Br)ccc2C)c2ccc(-c3cnc(C)nc3)cc12 [Compound 68] | < 1000
13 | CC(=O)c1nn(CC(=O)N2[C@H](C(=O)Nc3nc(Br)ccc3C)C[C@@]3(CN4CCN(C)CC4)C[C@@H]23)c2c(C)cc(-c3cnc(C)nc3)cc12 [Compound 69, (1R,3S,5R)-2-(2-(3-Acetyl-7-methyl-5-(2-methylpyrimidin-5-yl)-1H-indazol-1-yl)acetyl)-N-(6-bromo-3-methylpyridin-2-yl)-5-((4-methylpiperazin-1-yl)methyl)-2-azabicyclo[3.1.0]hexane-3-carboxamide] | < 1000
14 | C=CCOCc1ccc(Br)nc1NC(=O)[C@@H]1C[C@@]2(CN(C)CC=C)C[C@H]2N1C(=O)Cn1nc(C(C)=O)c2cc(-c3cnc(C)nc3)ccc21 [Compound 70, (1R,3S,5R)-2-(2-(3-Acetyl-5-(2-methylpyrimidin-5-yl)-1H-indazol-1-yl)acetyl)-5-((allyl(methyl)amino)methyl)-N-(3-((allyloxy)methyl)-6-bromopyridin-2-yl)-2-azabicyclo[3.1.0]hexane-3-carboxamide] | < 1000
15 | Cc1ncc(-c2ccc3c(c2)c(C(C)O)nn3CC(=O)N2C[C@H]3C[C@H]3[C@H]2C(=O)Nc2nc(Br)ccc2C)cn1 (stereo partly drawn) [Compound 71, (1R,2S,5S)-N-(6-bromo-3-methylpyridin-2-yl)-3-(2-(3-(1-hydroxyethyl)-5-(2-methylpyrimidin-5-yl)-1H-indazol-1-yl)acetyl)-3-azabicyclo[3.1.0]hexane-2-carboxamide] | 1000 to 10000
16 | Cc1ncc(-c2ccc3c(c2)c(C(C)O)nn3CC(=O)N2[C@H](C(=O)Nc3nc(Br)ccc3C)C[C@@]3(C)C[C@@H]23)cn1 (stereo partly drawn) [Compound 72, (1R,3S,5R)-N-(6-bromo-3-methylpyridin-2-yl)-2-(2-(3-(1-hydroxyethyl)-5-(2-methylpyrimidin-5-yl)-1H-indazol-1-yl)acetyl)-5-methyl-2-azabicyclo[3.1.0]hexane-3-carboxamide] | 1000 to 10000
17 | CC(=O)c1nn(CC(=O)N2[C@H](C(=O)Nc3nc(Br)cc4ccccc34)C[C@@]3(C)C[C@@H]23)c2ccc(-c3cnc(C)nc3)cc12 [Compound 73, (1R,3S,5R)-2-(2-(3-Acetyl-5-(2-methylpyrimidin-5-yl)-1H-indazol-1-yl)acetyl)-N-(3-bromoisoquinolin-1-yl)-5-methyl-2-azabicyclo[3.1.0]hexane-3-carboxamide] | < 1000
18 | CC(=O)c1nn(CC(=O)N2[C@H](C(=O)Nc3nc(Br)ccc3C)C[C@@]3(CN(C)C)C[C@@H]23)c2c(CF)cc(-c3cnc(C)nc3)cc12 [Compound 74, (1R,3S,5R)-2-(2-(3-Acetyl-7-(fluoromethyl)-5-(2-methylpyrimidin-5-yl)-1H-indazol-1-yl)acetyl)-N-(6-bromo-3-methylpyridin-2-yl)-5-((dimethylamino)methyl)-2-azabicyclo[3.1.0]hexane-3-carboxamide] | < 1000
19 | CC(=O)c1nn(CC(=O)N2[C@H]3C[C@@]3(CN(C)C)C[C@H]2C(=O)Nc2nc(Br)ccc2C)c2c(CF)cc(-c3cnc(C)nc3)cc12 [Compound 75, (1S,3S,5S)-2-(2-(3-Acetyl-7-(fluoromethyl)-5-(2-methylpyrimidin-5-yl)-1H-indazol-1-yl)acetyl)-N-(6-bromo-3-methylpyridin-2-yl)-5-((dimethylamino)methyl)-2-azabicyclo[3.1.0]hexane-3-carboxamide] | < 1000
20 | CC(=O)c1nn(CC(=O)N2C[C@@](F)(CF)C[C@H]2C(=O)Nc2nc(Br)ccc2C)c2c(CF)cc(-c3cnc(C)nc3)cc12 [Compound 76, (2S,4R)-1-(2-(3-acetyl-7-(fluoromethyl)-5-(2-methylpyrimidin-5-yl)-1H-indazol-1-yl)acetyl)-N-(6-bromo-3-methylpyridin-2-yl)-4-fluoro-4-(fluoromethyl)pyrrolidine-2-carboxamide] | < 1000
21 | CC(=O)c1nn(CC(=O)N2[C@H]3C[C@@]3(C)C[C@H]2C(=O)Nc2nc(Br)ccc2C)c2c(C(F)(F)F)cc(-c3cnc(C)nc3)cc12 [Compound 77, (1S,3S,5S)-2-(2-(3-acetyl-5-(2-methylpyrimidin-5-yl)-7-(trifluoromethyl)-1H-indazol-1-yl)acetyl)-N-(6-bromo-3-methylpyridin-2-yl)-5-methyl-2-azabicyclo[3.1.0]hexane-3-carboxamide] | > 10000
22 | CC(=O)c1nn(CC(=O)N2[C@H](C(=O)Nc3nc(Br)ccc3C)C[C@@]3(CN4CCN(C(C)=O)CC4)C[C@@H]23)c2ccc(-c3cnc(C)nc3)cc12 [Compound 78, (1R,3S,5R)-2-(2-(3-acetyl-5-(2-methylpyrimidin-5-yl)-1H-indazol-1-yl)acetyl)-5-((4-acetylpiperazin-1-yl)methyl)-N-(6-bromo-3-methylpyridin-2-yl)-2-azabicyclo[3.1.0]hexane-3-carboxamide] | < 1000
